Laboratory results reported in EP4778924A1 (Huons Co., Ltd., priority 2023, dated 2025).
“Also recorded” adds a separate entry of the source.

Key:
[1] = target: T1, Proton Pump (H^+,K^+-ATPase) (Sus scrofa, UniProt P19156); assay: Inhibitory activity on proton pump (H+,K+-ATPase) activity, porcine gastric vesicles, malachite green readout; type: biochemical; settings: for IC50: porcine gastric vesicles, pH 6.5, 8 mM KCl, 0.2 mM ATP; for inhibitory activity against proton pump activity: result in words
T1 construct: gastric vesicles were isolated from porcine stomachs; from tissue; host or cells: porcine stomach (gastric vesicles)
T1 sequence (P19156 2-1034 limits assumed): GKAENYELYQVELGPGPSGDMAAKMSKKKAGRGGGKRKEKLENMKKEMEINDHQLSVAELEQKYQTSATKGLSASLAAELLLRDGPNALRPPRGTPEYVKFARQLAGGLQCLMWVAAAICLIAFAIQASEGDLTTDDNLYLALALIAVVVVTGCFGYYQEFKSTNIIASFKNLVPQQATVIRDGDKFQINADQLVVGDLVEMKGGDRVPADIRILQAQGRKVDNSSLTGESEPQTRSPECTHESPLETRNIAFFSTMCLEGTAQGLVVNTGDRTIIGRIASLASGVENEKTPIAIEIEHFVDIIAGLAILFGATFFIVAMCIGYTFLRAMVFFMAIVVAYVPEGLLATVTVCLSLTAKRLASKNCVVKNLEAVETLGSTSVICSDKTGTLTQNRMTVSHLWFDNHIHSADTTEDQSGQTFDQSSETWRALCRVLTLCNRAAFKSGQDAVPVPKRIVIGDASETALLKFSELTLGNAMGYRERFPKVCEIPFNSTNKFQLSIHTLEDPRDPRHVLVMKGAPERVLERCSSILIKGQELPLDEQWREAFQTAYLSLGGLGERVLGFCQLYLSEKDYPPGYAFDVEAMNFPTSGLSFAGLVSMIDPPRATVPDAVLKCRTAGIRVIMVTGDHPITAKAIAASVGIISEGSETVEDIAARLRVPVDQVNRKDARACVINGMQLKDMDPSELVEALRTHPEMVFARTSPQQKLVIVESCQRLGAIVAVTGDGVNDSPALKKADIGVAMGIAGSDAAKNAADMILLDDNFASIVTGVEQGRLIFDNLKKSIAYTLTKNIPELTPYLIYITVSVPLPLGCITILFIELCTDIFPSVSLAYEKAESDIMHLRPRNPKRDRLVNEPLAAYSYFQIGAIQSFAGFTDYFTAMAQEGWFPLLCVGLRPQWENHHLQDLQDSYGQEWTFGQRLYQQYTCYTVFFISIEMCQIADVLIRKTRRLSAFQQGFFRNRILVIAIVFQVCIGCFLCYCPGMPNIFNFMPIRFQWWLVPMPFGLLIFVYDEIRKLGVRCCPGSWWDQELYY
T1 sequence (P18434 whole entry partner): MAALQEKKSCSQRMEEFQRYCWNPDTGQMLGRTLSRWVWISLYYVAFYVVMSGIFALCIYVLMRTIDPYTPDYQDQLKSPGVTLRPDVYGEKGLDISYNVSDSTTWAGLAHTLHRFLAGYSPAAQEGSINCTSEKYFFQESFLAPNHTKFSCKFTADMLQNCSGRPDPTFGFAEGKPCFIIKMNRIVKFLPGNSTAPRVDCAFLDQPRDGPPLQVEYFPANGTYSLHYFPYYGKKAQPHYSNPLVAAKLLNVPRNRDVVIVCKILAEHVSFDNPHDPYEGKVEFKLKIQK
Method in brief: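 Porcine gastric vesicles (100 ng) preincubated 30 min at 37°C with […] valinomycin and compound (0.1% DMSO final) in 50 mM Tris-HEPES, 5 mM MgCl2, 8 mM KCl, pH 6.5, then 0.2 mM ATP for 20 min at 37°C. Released phosphate measured by malachite green at 620 nm; IC50 via nonlinear regression of % inhibition.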

Pylorus-Ligated Rats = assay: Inhibitory activity on basal gastric acid secretion in pylorus-ligated rats (Shay's rat model); type: in vivo, male Sprague Dawley (SD) rats; settings: for inhibition in vivo at 2 mg/kg: Rattus norvegicus, po, read-out: GERD (rat/mpk); for inhibitory activity against basal gastric acid secretion: result in words, pyloric-ligated rats
Protocol: Specifically, male Sprague Dawley (SD) rats (weighing 180-220 g) were fasted for 24 hours with only water, and then randomly assigned to groups (n=4-5) after measuring body weight. The negative control group was orally administered 10% dimethylsulfoxide (DMSO)/10% Cremophor EL/80% D.W. at 2 mL/kg, and the test group was orally administered the test compound at 2 mg/kg/2 mL. One hour after administration, the rats' abdominal cavity was incised under isoflurane anesthesia, the stomach was exposed, and the pylorus was ligated. Three hours after ligation, the test animals were sacrificed and the stomach contents were collected by laparotomy again. The contents were centrifuged (3,000 rpm, 10 min), and only the supernatant was separated to obtain gastric juice. Afterwards, gastric fluid volume measurement, gastric fluid pH measurement, NaOH titration, and total gastric acid secretion calculation (gastric fluid volume × 0.1 N NaOH titer × 100) were sequentially performed.

| Compound | IC50 [1] [nM] | inhibitory activity against proton pump activity [1] | inhibition in vivo at 2 mg/kg (Pylorus-Ligated Rats) [%] | inhibitory activity against basal gastric acid secretion (Pylorus-Ligated Rats; 2 mg/kg oral) | GERD (rat/mpk) (Pylorus-Ligated Rats; % inhibitory activity on total gastric acid secretion, 2 mg/kg oral, pylorus ligated 1 h after administration, stomach contents collected 3 h after ligation) | inhibitory activity against basal gastric acid secretion (Pylorus-Ligated Rats; 2 mg/kg oral, citrate, 2 mg/kg) |
| --- | --- | --- | --- | --- | --- | --- |
| CC(=O)Nc1cc(NCc2c(C)cccc2C)c2nc(C)c(C)n2c1 [Example 4, N-(8-((2,6-dimethylbenzyl)amino)-2,3-dimethylimidazo[1,2-a]pyridin-6-yl)acetamide] | < 50 | excellent inhibitory properties | ≥ 90 | inhibitory activity |  |  |
| COCC(=O)Nc1cc(NCc2c(C)cccc2C)c2nc(C)c(C)n2c1 [Example 15, N-(8-((2,6-dimethylbenzyl)amino)-2,3-dimethylimidazo[1,2-a]pyridin-6-yl)-2-methoxyacetamide] | < 50 | excellent inhibitory properties | ≥ 90 | inhibitory activity |  |  |
| CC(=O)Nc1cc(NCc2c(C)cc(F)cc2C)c2nc(C)c(C)n2c1 [Example 21, N-(8-((4-fluoro-2,6-dimethylbenzyl)amino)-2,3-dimethylimidazo[1,2-a]pyridin-6-yl)acetamide] | < 50 | excellent inhibitory properties | ≥ 90 | inhibitory activity |  |  |
| Cc1cccc(C)c1CNc1cc(NC(=O)CO)cn2c(C)c(C)nc12 [Example 26, N-(8-((2,6-dimethylbenzyl)amino)-2,3-dimethylimidazo[1,2-a]pyridin-6-yl)-2-hydroxyacetamide] | < 50 | excellent inhibitory properties | ≥ 90 | inhibitory activity |  |  |
| CC(=O)Nc1cc(NCc2c(C)cc(F)cc2C)c2nc(C)c(C)n2c1.Cl [Example 45, N-(8-((4-fluoro-2,6-dimethylbenzyl)amino)-2,3-dimethylimidazo[1,2-a]pyridin-6-yl)acetamide hydrochloride] |  |  |  | inhibitory activity | A (A≥90%) |  |
| Cc1cccc(C)c1CNc1cc(N2C(=O)CNC2=O)cn2c(C)c(C)nc12 [Example 60, 3-(8-((2,6-dimethylbenzyl)amino)-2,3-dimethylimidazo[1,2-a]pyridin-6-yl)imidazolidine-2,4-dione] | < 50 | excellent inhibitory properties | ≥ 90 | inhibitory activity |  |  |
| Cc1cc(F)cc(C)c1CNc1cc(NC(=O)CO)cn2c(C)c(C)nc12.O=C(O)CC(O)(CC(=O)O)C(=O)O [Example 86, N-(8-((4-fluoro-2,6-dimethylbenzyl)amino)-2,3-dimethylimidazo[1,2-a]pyridin-6-yl)-2-hydroxyacetamide citrate] | < 50 |  | ≥ 90 | inhibitory activity |  |  |
| COCC(=O)Nc1cc(NCc2c(C)cc(F)cc2C)c2nc(C)c(C)n2c1.O=C(O)CC(O)(CC(=O)O)C(=O)O [Example 100, N-(8-((4-fluoro-2,6-dimethylbenzyl)amino)-2,3-dimethylimidazo[1,2-a]pyridin-6-yl)-2-methoxyacetamide citrate] | < 50 |  | ≥ 90 | inhibitory activity |  |  |
| Cc1cc(F)cc(C)c1CNc1cc(NC(=O)CCO)cn2c(C)c(C)nc12.O=C(O)CC(O)(CC(=O)O)C(=O)O [Example 101, N-(8-((4-fluoro-2,6-dimethylbenzyl)amino)-2,3-dimethylimidazo[1,2-a]pyridin-6-yl)-3-hydroxypropanamide citrate] | < 50 |  | 70 to 80 |  |  | inhibitory activity; also recorded: somewhat reduced |
| Cc1cccc(C)c1CNc1cc(NC(=O)CCO)cn2c(C)c(C)nc12.O=C(O)CC(O)(CC(=O)O)C(=O)O [Example 102, N-(8-((2,6-dimethylbenzyl)amino)-2,3-dimethylimidazo[1,2-a]pyridin-6-yl)-3-hydroxypropanamide citrate] | < 50 |  | ≥ 90 | inhibitory activity |  |  |
